In PubChem BioAssay AID2610 (Broad Institute, 2010) one finds EC50 data, which are given here for 94 compounds.

Records with an inconclusive call do not appear. Calls of active or inactive are those of the source.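 How the source made its calls: active means EC50 no more than tenfold above the top concentration tested, with valid fit and all samples agreeing; inconclusive means flat fit at 30 to 70% inhibition, poor fit, or split samples; inactive means EC50 beyond tenfold the top concentration tested.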

The test system of the assay is BJeLR fibroblast viability, Alamar Blue fluorescence, 48 h. Briefly: cytotoxicity toward RAS-transformed BJeLR fibroblasts, dose response, cell-based, alamar blue fluorescence, 48 h, cherrypicked samples (AID 2610;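 further: BJ fibroblasts with hTERT plus SV40 large and small T and HRAS V12; EC50 for loss of viable cells so potency reflects cytotoxic compounds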). (Alamar Blue is a resazurin reagent that responds to reducing activity.)
Take `Nc1nc(N)c2c(ccc3nccc32)[nH]1`: the EC50 was > 13300 nM (inactive).
Take `CCOc1ccc(C(=O)c2cc([N+](=O)[O-])ccc2N2CCOCC2)cc1`: the EC50 is less than 104 nM.
In the case of `Cc1cccc(Nc2nc(N)nc(CCl)n2)c1C` it was 468 nM.
In the case of `CC1CC(C)CN(S(=O)(=O)c2ccc(C(=O)NCCCn3ccnc3)cc2)C1` (centres undefined), the EC50 was 150 nM.
Turning to `COc1ccc(S(=O)(=O)N2c3cc(Cl)ccc3Oc3nc4ccccc4nc32)cc1`, the EC50 is 193 nM.
Next, `O=C(NCCCn1ccnc1)c1ccc(N2CCCCCC2)c([N+](=O)[O-])c1`: 6680 nM; `CC(=O)Nc1ccc(/C=N/Nc2nc3ccccc3[nH]2)cc1`: > 13300 nM (inactive).
For the compound `COc1ccc(OC)c2sc(N(CCCN(C)C)C(=O)c3ccc(S(=O)(=O)N4CCc5ccccc5C4)cc3)nc12`, the EC50 was 108 nM.
In the case of `CCCCCCCCCCCCn1ccc(=N)cc1` it was 522 nM; in that of `Cc1ccc(Nc2nc(N)nc(CCl)n2)c(C)c1`, 388 nM; in that of `CCCCCCCCCCn1c2c(c(=N)c3c1CCC3)CCC2`, 820 nM.
In the case of `COc1ccc(N(C(=O)CCl)C(C(=O)NCCc2ccccc2)c2cccs2)cc1` (centres undefined) it was 428 nM; in that of `Cc1sc2cc3c(c(C(=O)c4ccccc4)[n+]2c1C)-c1cccc2cccc-3c12`, 10500 nM; in that of `COc1ccc(F)cc1CN1CCN(C(=O)CCC(=O)Nc2nnc(CC(C)C)s2)CC1`, > 13300 nM (inactive).
Next, `COC(=O)C1CN(C#N)N(c2ccc(Cl)cc2)C12c1ccccc1-c1ccccc12` (centres undefined): 567 nM.
For the compound `COc1ccc(-c2nnc(NC(=O)c3ccc(S(=O)(=O)N4CCc5ccccc5C4)cc3)o2)cc1`, the EC50 was 2600 nM.
Next, `C[C@@H]1O[C@@H](O[C@H]2C[C@@H](O)[C@]3(CO)[C@H]4[C@H](O)C[C@]5(C)[C@@H](C6COC(=O)C6)CC[C@]5(O)[C@@H]4CC[C@]3(O)C2)[C@H](O)[C@H](O)[C@H]1O` (some centres undefined): 802 nM; `Cc1cccc(Nc2nc(N)nc(CCl)n2)c1`: 2210 nM; `COc1ccc(C(=O)c2cc([N+](=O)[O-])ccc2N2CCOCC2)cc1`: less than 104 nM.
As for `COc1ccc(/C=N\NC(=O)c2cccc(F)c2)cc1COc1ccccc1`, the EC50 is less than 104 nM.
With `N#CC1=C(N)Oc2cc(N)ccc2C1c1cccc(Br)c1` (centres undefined), the EC50 was 318 nM.
Next, `CN(C)CCCNc1c2ccccc2nc2ccccc12`: 506 nM.
In the case of `COc1ccc(-c2cc3nc(C)cc(N)n3n2)cc1` it was > 13300 nM (inactive); in that of `CCOc1ccc(N=Cc2c(C)[nH]n(-c3nc4ccccc4[nH]3)c2=O)cc1`, > 13300 nM (inactive).
Next, `COc1ccc(/C=C/c2cc(-c3ccc(C)cc3)o[n+]2C)cc1`: 654 nM.
Take `COc1ccc(C(C(=O)NC2CCCCC2)N(C(=O)CCl)c2ccc(C)cc2)cc1` (centres undefined): the EC50 is 454 nM.
In the case of `O=C(N/N=C/c1ccccc1Cl)c1[nH]c2ccc(Br)cc2c1-c1ccccc1` it was 149 nM; in that of `O=C1C(=O)c2ccc(-c3ccccc3)cc2-c2ccccc21`, 926 nM; in that of `Cc1cccnc1Nc1nc(-c2ccccn2)cs1`, less than 142 nM.
`CC[C@@]1(O)C(=O)OCc2c1cc1n(c2=O)Cc2cc3c(CN(C)C)c(O)ccc3nc2-1`: the EC50 is less than 39.2 nM.
Take `C[C@@H]1C[C@H]2OC(=O)C3(CO3)[C@H]2[C@H](O)[C@]2(C)C(=O)C3OC3[C@@H]12` (some centres undefined): the EC50 is 2830 nM.
Next, `O=C(Cc1ccc(Cl)cc1)c1c[nH]c(C(=O)NCc2cccnc2)c1`: > 13300 nM (inactive).
Next, `O=S1(=O)C=C(Sc2nc3ccccc3s2)c2ccccc21`: 316 nM; `CCCCOc1ccc(Br)cc1/C(C)=N/NC1=NCCN1`: 585 nM; `COc1cccc(N(C(=O)CCl)C(C(=O)NCCc2ccccc2)c2cccs2)c1` (centres undefined): 212 nM.
Take `COc1cc2c(c(OC)c1OC)-c1ccc(N(C)CC(OC)OC)c(=O)cc1[C@@H](NC(C)=O)CC2`: the EC50 is 180 nM.
As to `C/C(=N\NC(=O)c1ccc(F)cc1)c1ccccn1`, the 50% effective concentration (EC50) is 491 nM.
Next, `O=c1c2ccccc2cnn1-c1nc2ccccc2[nH]1`: > 13300 nM (inactive); `COc1ccc(C2=CC(=O)C=CC2=O)cc1`: > 13300 nM (inactive).
Next, `CCCC(=O)Nc1ccc(C(=O)N/N=C/c2ccc([N+](=O)[O-])o2)cc1`: less than 48.8 nM; `O=C(CSc1ccccn1)NCc1ccc2c(c1)OCO2`: > 13300 nM (inactive); `CC(C)(C)c1nnc(N/N=C/c2cc(Br)ccc2O)n(N)c1=O`: 1400 nM.
Turning to `C[C@@H]1C=CC(=O)O[C@@H]1c1ccc(Cl)cc1`, the EC50 was 4190 nM.
In the case of `CC[C@@]1(O)C(=O)OCc2c1cc1n(c2=O)Cc2cc3ccccc3nc2-1` it was less than 30.4 nM.
With `COc1ccccc1-c1nnc2sc(-c3ccc(N(C)C)cc3)nn12`, the EC50 is less than 104 nM.
In the case of `CCOCCOC(=O)c1[nH]c2c(c1C)C(=O)CC(c1ccccc1)C2` (centres undefined) it was 262 nM; in that of `CCCC(=O)OCCNc1cc(Sc2nccn2C)c2nonc2c1[N+](=O)[O-]`, 2510 nM.
Next, `COc1ccccc1-n1cnc2cc(NCc3cccs3)ccc21`: less than 104 nM; `N=c1c2c(-c3ccccc3)c(-c3ccccc3)n(Cc3ccco3)c2ncn1CCCn1ccnc1`: 1270 nM.
Next, `CCN(CC)Cc1c(O)ccc2c1O/C(=C\C=C\c1ccccc1)C2=O`: > 13300 nM (inactive); `Nc1nc(F)nc2c1ncn2[C@@H]1O[C@H](CO)[C@@H](O)[C@H]1O`: 151 nM; `Cc1occc1C(=O)N/N=C/c1ccc2c(c1)OCO2`: > 13300 nM (inactive).
For `CC(=O)c1ccccc1OCCOCCOCCOc1ccccc1C(C)=O`, the EC50 is > 13300 nM (inactive).
In the case of `O=Cc1ccc(O)c2ncccc12`, the EC50 is 463 nM.
Turning to `CCOc1ccc(C2=Nn3c(nnc3-c3ccccc3OC)SC2)cc1`, the EC50 was less than 104 nM.
On to `Cc1cccc(C)c1NS(=O)(=O)c1ccc(-c2cnc(C3CC3)o2)cc1`, for which the EC50 is less than 104 nM.
Turning to `COc1ccc(-c2coc3cc4oc(=O)c5ccccc5c4cc23)cc1F`, the 50% effective concentration (EC50) was less than 104 nM.
For the compound `Cc1cc(C)cc(NS(=O)(=O)c2ccc(-c3cnc(C4CC4)o3)cc2)c1`, the EC50 was less than 104 nM.
In the case of `CCOc1ccc2nc(NC(=O)c3ccoc3C)sc2c1`, the EC50 is > 13300 nM (inactive).
`CCN1CCN(CCNC(=O)c2ccc(/C=C3/Sc4ccccc4N(Cc4ccccc4C)C3=O)cc2)CC1`: the EC50 is > 13300 nM (inactive).
With `COC(=O)C[C@]1(C(=O)OC)CN(C#N)N(c2ccc(Cl)cc2)C12c1ccccc1-c1ccccc12`, the EC50 was 762 nM.
In the case of `COc1cccc(N2CCN(C(=O)c3ccc(CS(=O)c4ccc(C)cc4)o3)CC2)c1` (centres undefined) it was 165 nM.
Turning to `CC(=O)Nc1ccc(NC(=O)CN(c2cccc([N+](=O)[O-])c2)S(C)(=O)=O)cc1`, the EC50 is 1410 nM.
On to `COc1ccc(C(=O)N/N=C(\C)c2ccccn2)cc1OC`, for which the EC50 is 795 nM.
Turning to `CC(C)[C@]12O[C@H]1[C@@H]1O[C@]13[C@]1(O[C@H]1C[C@H]1C4=C(CC[C@@]13C)C(=O)OC4)[C@@H]2O`, the EC50 is less than 104 nM.
Regarding `COc1cc(NC(=O)c2cccs2)c(OC)cc1NC(=O)CCC(=O)Nc1ccc2ncccc2c1`, the EC50 was > 13300 nM (inactive).
`C(=N\Nc1nc2ccccc2[nH]1)/c1ccc2ncccc2c1`: the EC50 is > 13300 nM (inactive).
In the case of `COc1ccc(N/C=C/C(=O)c2cc(OC)c(OC)c(OC)c2)cc1` it was 206 nM; in that of `O=c1c2ccccc2nc(/C=C/c2ccc([N+](=O)[O-])o2)n1-c1ccc(O)cc1`, 3660 nM.
Next, `C(=N\Nc1nncc2ccccc12)/c1ccccn1`: 3340 nM.
In the case of `COc1cccc2c1C(=O)c1c(O)c3c(c(O)c1C2=O)C[C@@](O)(C(=O)CO)C[C@@H]3O[C@H]1C[C@H](N)[C@H](O)[C@H](C)O1` it was less than 104 nM; in that of `C[C@@H]1C=CC(=O)O[C@@H]1c1ccc(C(F)(F)F)cc1`, 1970 nM; in that of `COc1cccc(C(=O)Nc2ccc(N3CCCC3)cc2)c1`, 1970 nM.
As for `O=C(NCc1cccnc1)c1ccc(-c2cc3ccccc3oc2=O)cc1`, the 50% effective concentration (EC50) was 1340 nM.
Regarding `COc1cccc(C(=O)N/N=C(/c2ccccc2)c2ccccn2)c1`, the concentration giving a half-maximal response (EC50) is 821 nM.
Next, `c1ccc(-c2ccc(-c3nc(-c4ccccn4)no3)cc2)cc1`: > 13300 nM (inactive).
Next, `CCCc1sc(N/N=C/c2ccccn2)nc1-c1ccc(F)cc1`: 1360 nM; `O=C1/C(=C/c2ccncc2)CCC/C1=C\c1ccncc1`: 539 nM; `CCN(CC)C(=O)c1ccc(NC(=O)Nc2ccccc2F)cc1`: > 13300 nM (inactive).
Turning to `Cc1ccc(N(C(=O)CCl)C(C(=O)NC2CCCCC2)c2cccnc2)cc1C` (centres undefined), the EC50 was less than 89.2 nM.
In the case of `COc1ccc(N2C(=O)/C(=C/c3ccc(C)o3)C(=O)NC2=S)cc1` it was > 13300 nM (inactive); in that of `O=C(N/N=C/c1cc2c3c(c1O)CCCN3CCC2)c1ccccc1O`, 755 nM.
As to `COc1ccc(C(C(=O)NC2CCCCC2)N(C(=O)CCl)c2cccc(Cl)c2)cc1` (centres undefined), the EC50 is less than 73.2 nM.
In the case of `CCN1C/C(=C/c2ccc(OC)c(O)c2)C(=O)/C(=C/c2ccc(OC)c(O)c2)C1` it was 472 nM.
Next, `CC(C)c1cc(C(=O)N/N=C/C(Br)=C/c2ccccc2)n[nH]1`: 958 nM; `O=C(/C=C\c1ccco1)Nc1cc([N+](=O)[O-])ccc1F`: 256 nM.
Regarding `O=[N+]([O-])c1c(Nc2ccccn2)cc(Cl)c2nonc12`, the EC50 is 2110 nM.
In the case of `CNC1=C(N(C(C)=O)c2ccc(Br)cc2)C(=O)c2ccccc2C1=O` it was 1350 nM; in that of `O=C(NC(Nc1nc2ccc([N+](=O)[O-])cc2s1)(C(F)(F)F)C(F)(F)F)c1ccccc1`, 239 nM; in that of `CC(=O)c1ccc(Oc2cc(C)nc(-n3nc(C)cc3C)n2)cc1`, less than 104 nM.
In the case of `CCOC(=O)/C(=C\c1cccnc1)C(=O)c1cc(C(C)=O)c(Nc2ccccc2)s1` it was 575 nM; in that of `Cc1cc2nc(/C=C/c3cccnc3)[nH]c2cc1C`, less than 104 nM.
`Cc1ccc(/C=C2\SC(=S)N(CCCC(=O)N3CCOCC3)C2=O)cc1`: the EC50 is 3580 nM.
Next, `c1ccc2nc(-c3nc4ccccc4o3)ccc2c1`: > 13300 nM (inactive).

What is called EC50 is the concentration needed to bring the measured effect to its halfway point.
